Assay results from patent publication US8673913B2, “SHP-2 phosphatase inhibitor” (Case Western Reserve University, priority 2009, dated 2014).

Target: T1, GST-CD45 cytoplasmic domain (Homo sapiens, UniProt P08575)
T1 construct: GST-CD45 cytoplasmic domain; purchased Biomol International, L.P. (Plymouth Meeting, Pa.)
T1 sequence (P08575 599-1306 limits assumed): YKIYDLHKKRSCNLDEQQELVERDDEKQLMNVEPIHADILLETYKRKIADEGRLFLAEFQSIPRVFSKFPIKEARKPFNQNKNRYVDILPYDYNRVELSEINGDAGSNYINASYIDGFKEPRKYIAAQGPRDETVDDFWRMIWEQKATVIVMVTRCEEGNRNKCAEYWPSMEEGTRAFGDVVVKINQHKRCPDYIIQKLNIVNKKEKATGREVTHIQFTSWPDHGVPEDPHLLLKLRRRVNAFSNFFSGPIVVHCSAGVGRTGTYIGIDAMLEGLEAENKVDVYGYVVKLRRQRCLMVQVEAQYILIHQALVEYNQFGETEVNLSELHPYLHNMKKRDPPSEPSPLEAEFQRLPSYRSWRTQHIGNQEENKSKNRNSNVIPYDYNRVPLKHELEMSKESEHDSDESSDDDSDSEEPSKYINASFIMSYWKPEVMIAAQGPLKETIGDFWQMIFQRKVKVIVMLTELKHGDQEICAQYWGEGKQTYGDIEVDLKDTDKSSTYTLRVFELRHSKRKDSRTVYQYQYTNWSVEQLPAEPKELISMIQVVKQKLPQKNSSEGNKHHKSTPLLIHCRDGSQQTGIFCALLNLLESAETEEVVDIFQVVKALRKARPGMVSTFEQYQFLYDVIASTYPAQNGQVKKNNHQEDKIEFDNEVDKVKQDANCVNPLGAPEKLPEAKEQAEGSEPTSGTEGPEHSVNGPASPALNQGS
Assay: in vitro phosphatase assay, CD45
Type: biochemical
Settings: read-out: IC50 PTPRC (CD45)
Description: Candidate compounds were screened using the in vitro protein tyrosine phosphatase (PTP) assay kit (Sigma, St. Lois, Mo.). […] The assay determines free phosphate generated by dephosphorylation of the PTP substrate using the Malachite Green reagent. Briefly, 0.5 μg of GST-SHP-2 PTP was incubated in 40 μL assay buffer (25 mM Tris-HCl, PH7.4, 50 mM NaCl, 5 mM DTT, and 2.5 mM EDTA) with test compounds at various concentrations or DMSO at room temperature for 30 min. The PTP substrate was then added to a final concentration of 0.2 mM. The system was incubated at 30° C. for 30 min. Finally, 50 μl of Malachite Green solution was added and OD620 was measured after 5 min. In the phosphatase assays for SHP-1, CD45, TC-PTP, PTP-MEG2 (PTPN9), and LAR (PTPRF), procedures were similar, with the exception that GST-SHP-1, GST-CD45 cytoplasmic domain, GST-TC-PTP, GST-PTP-MEG2 PTP domain, and GST-LAR PTP domain purchased from Biomol International, L.P. (Plymouth Meeting, Pa.) were used instead as the enzymes.

- IC50: 182 µM
Compound: Cc1cc(C)c2[nH]c3nc(SCC(=O)Nc4cccc5ccccc45)nnc3c2c1 [#324]
